From patent US20060014723A1, “Anti-parasitic uses of borinic acid complexes” (priority 2004, published 2006)
Values after ≈ are worked out from the molar mass of the structure shown.

How the values were obtained:
[1] = system: Leishmania donovani strain MHOM/ET1671L82; assay: Leishmaniasis in vitro screening model (axenic amastigotes, Alamar Blue); assay type: cell-based
In short: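 Axenic L. donovani amastigotes (10^5 per well) from hamster spleen, grown at 37° C in SM medium pH 5.4 with 10% FBS, 5% CO2, exposed to serial 3-fold compound dilutions (30 to 0.041 μg/mL) for 72 h. Alamar Blue added for 2 h, fluorescence read (ex 536/em 588 nm); IC50 from sigmoidal curve versus control cultures.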

[2] = system: T. b. rhodesiense STIB 900; assay: African sleeping sickness in vitro screening model (Alamar Blue); assay type: cell-based, Trypanosoma brucei rhodesiense
In short: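 Bloodstream-form trypomastigotes, 8×10^3/well, were grown in supplemented MEM with 15% horse serum, without hypoxanthine, at 37 °C in 5% CO2. They were exposed for 72 h to seven 3-fold dilutions from 90 to 0.123 μg/mL. Resazurin (Alamar Blue) was added for 2 h, fluorescence read at ex 536/em 588 nm, and IC50 taken as the mean of four values.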

For `CC1(C)COC(c2cccc(B(Oc3cccc4cccnc34)c3cccc(C4=NC(C)(C)CO4)c3)c2)=N1` [Compound 13, Bis[3-(4,5-dihydro-4,4-dimethyloxazol-2-yl)phenyl]borinic acid 8-hydroxyquinoline ester], the “L. donovani IC50” value [1] was 0.82 µg/mL and the “T. b. rhodesiense IC50” value [2] was 0.5 µg/mL.

Molecule `COc1ccc(B(Oc2cccc3cccnc23)c2cccc(Cl)c2)cc1OC` [Compound 27, (3-Chlorophenyl)(3,4-dimethoxyphenyl)borinic acid quinolin-8-yl ester] has an IC50 ([1]; Leishmania donovani, read-out: L. donovani IC50) of 0.47 µg/mL (≈ 1.16 µM) and an IC50 ([2]; Trypanosoma brucei) of 0.52 µg/mL (≈ 1.29 µM).
